From BindingDB's records for doi:10.1074/jbc.M114.564278 (University of Michigan, 2014)
Where a SMILES comes first, the peptide text is derived from it. [ ]: non-standard residue; d: D form. The star is where a group is joined. X1 = O=C(O)c1cc(NC(=S)*)ccc1-c1c2ccc(=O)cc-2oc2cc(O)ccc12; Ala(3-Me-diazirin-3-yl) = CC1(C[C@H](N)C(=O)O)N=N1; βAla = NCCC(=O)O

How the values were obtained:
[1] = target: T1, Acyl-[acyl-carrier-protein]--UDP-N-acetylglucosamine O-acyltransferase (Escherichia coli (strain K12), UniProt P0A722); assay: Fluorescence Polarization Assay; conditions: pH 8
T1 sequence (P0A722 whole entry): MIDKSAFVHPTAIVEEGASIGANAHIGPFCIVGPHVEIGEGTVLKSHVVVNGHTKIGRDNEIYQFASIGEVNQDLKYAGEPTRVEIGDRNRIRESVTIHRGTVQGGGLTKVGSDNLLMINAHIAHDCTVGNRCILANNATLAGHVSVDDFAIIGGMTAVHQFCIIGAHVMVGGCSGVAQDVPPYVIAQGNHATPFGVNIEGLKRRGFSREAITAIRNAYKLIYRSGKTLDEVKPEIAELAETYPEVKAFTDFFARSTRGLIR
Procedure: (§1) The fluorescence polarization assay was performed as previously described [Jenkins et al., ACS Chem. Biol., 7:1170-1177]. In 384-well black Costar plates, LpxA or His6-LpxD were serially diluted while holding the fluorescent peptide at 20 nM in a final volume of 50 μl in 20mM HEPES pH 8.0 (0.01% DMSO). The wells were gently mixed and incubated at 30 °C in the dark for 15 min. Polarization was measured on a SpectraMax M5 plate reader in triplicate with readings taken at λex = 485 nm and λem = 525 nm.

[2] = target: T2, UDP-3-O-(3-hydroxymyristoyl)glucosamine N-acyltransferase (Escherichia coli (strain K12), UniProt P21645); assay: Fluorescence Polarization Assay; conditions: pH 8
T2 sequence (P21645 whole entry): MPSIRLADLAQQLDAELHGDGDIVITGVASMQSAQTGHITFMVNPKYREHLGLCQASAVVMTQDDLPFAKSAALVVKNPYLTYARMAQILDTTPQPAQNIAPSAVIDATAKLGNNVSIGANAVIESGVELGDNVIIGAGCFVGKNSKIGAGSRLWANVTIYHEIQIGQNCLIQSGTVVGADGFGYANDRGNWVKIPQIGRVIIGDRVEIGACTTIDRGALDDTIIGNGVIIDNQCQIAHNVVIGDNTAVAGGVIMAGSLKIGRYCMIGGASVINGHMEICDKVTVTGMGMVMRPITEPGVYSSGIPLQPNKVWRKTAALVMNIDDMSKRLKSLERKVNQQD
Procedure: as §1

| Compound | Kd [1] [µM] | Kd [2] [µM] |
| --- | --- | --- |
| H-TNLYML-NH2 [RJPXD33Δ6] | 23 | – |
| CC[C@H](C)[C@H](NC(=O)[C@H](CC(=O)O)NC(=O)[C@H](Cc1c[nH]c2ccccc12)NC(=O)[C@H](CCCCN)NC(=O)[C@@H]1CCCN1C(=O)[C@H](CC(C)C)NC(=O)[C@H](CCSC)NC(=O)[C@H](Cc1ccc(O)cc1)NC(=O)[C@H](CC1(C)N=N1)NC(=O)[C@H](CC(N)=O)NC(=O)[C@@H](NC(=O)CCNC(=S)Nc1ccc(-c2c3ccc(=O)cc-3oc3cc(O)ccc23)c(C(=O)O)c1)[C@@H](C)O)C(=O)N1CCC[C@H]1C(N)=O [FITC-(βa)TN(L-photoleucine)YMLPKWDIP-CONH2] ({X1-βAla}-TN[Ala(3-Me-diazirin-3-yl)]YMLPKWDIP-NH2) | 50 | 2.1 |
| CSCC[C@H](NC(=O)[C@H](Cc1ccc(O)cc1)NC(=O)[C@H](CC(C)C)NC(=O)[C@H](CC(N)=O)NC(=O)[C@@H](NC(=O)CCNC(=S)Nc1ccc(-c2c3ccc(=O)cc-3oc3cc(O)ccc23)c(C(=O)O)c1)[C@@H](C)O)C(=O)N[C@@H](CC(C)C)C(N)=O [FITC-(βa)TNLYML-CONH2] ({X1-βAla}-TNLYML-NH2) | 12 | 22 |
| CC[C@H](C)[C@H](NC(=O)[C@H](CC(=O)O)NC(=O)[C@H](Cc1c[nH]c2ccccc12)NC(=O)[C@H](CCCCN)NC(=O)[C@@H]1CCCN1C(=O)[C@H](CC(C)C)NC(=O)[C@H](CCSC)NC(=O)[C@H](Cc1ccc(O)cc1)NC(=O)[C@H](CC(C)C)NC(=O)[C@H](CC(N)=O)NC(=O)[C@@H](NC(=O)CCNC(=S)Nc1ccc(-c2c3ccc(=O)cc-3oc3cc(O)ccc23)c(C(=O)O)c1)[C@@H](C)O)C(=O)N1CCC[C@H]1C(N)=O [FITC-(βa)TNLYMLPKWDIP-CONH2] ({X1-βAla}-TNLYMLPKWDIP-NH2) | 17 | 0.6 |
| H-TNLYML-OH [RJPXD33Δ6-COOH] | 2.1 | – |
| CC[C@H](C)[C@H](NC(=O)[C@H](CC(=O)O)NC(=O)[C@H](Cc1c[nH]c2ccccc12)NC(=O)[C@H](CCCCN)NC(=O)[C@@H]1CCCN1C(=O)[C@H](CC1(C)N=N1)NC(=O)[C@H](CCSC)NC(=O)[C@H](Cc1ccc(O)cc1)NC(=O)[C@H](CC(C)C)NC(=O)[C@H](CC(N)=O)NC(=O)[C@@H](NC(=O)CCNC(=S)Nc1ccc(-c2c3ccc(=O)cc-3oc3cc(O)ccc23)c(C(=O)O)c1)[C@@H](C)O)C(=O)N1CCC[C@H]1C(N)=O [FITC-(βa)TNLYM(L-photoleucine)PKWDIP-CONH2] ({X1-βAla}-TNLYM[Ala(3-Me-diazirin-3-yl)]PKWDIP-NH2) | 32 | 1.1 |
| CSCC[C@H](NC(=O)[C@H](Cc1ccc(O)cc1)NC(=O)[C@H](CC(C)C)NC(=O)[C@H](CC(N)=O)NC(=O)[C@@H](NC(=O)CCNC(=S)Nc1ccc(-c2c3ccc(=O)cc-3oc3cc(O)ccc23)c(C(=O)O)c1)[C@@H](C)O)C(=O)N[C@@H](CC(C)C)C(=O)N1CCC[C@H]1C(=O)N[C@@H](CCCCN)C(=O)N[C@@H](Cc1c[nH]c2ccccc12)C(=O)N[C@@H](CC(=O)O)C(=O)N[C@@H](CC1(C)N=N1)C(=O)N1CCC[C@H]1C(N)=O [FITC-(βa)TNLYMLPKWD(L-photoleucine)P-CONH2] ({X1-βAla}-TNLYMLPKWD[Ala(3-Me-diazirin-3-yl)]P-NH2) | 22 | 0.8 |
| CSCC[C@H](NC(=O)[C@H](Cc1ccc(O)cc1)NC(=O)[C@H](CC(C)C)NC(=O)[C@H](CC(N)=O)NC(=O)[C@@H](NC(=O)CCNC(=S)Nc1ccc(-c2c3ccc(=O)cc-3oc3cc(O)ccc23)c(C(=O)O)c1)[C@@H](C)O)C(=O)N[C@@H](CC(C)C)C(=O)O [FITC-(βa)TNLYML-COOH] ({X1-βAla}-TNLYML-OH) | 4.4 | 36 |
